The subject of the test is L1210 leukemia ip in BDF1 mice, survival T/C. Briefly: NCI In Vivo Anticancer Drug Screen. Data for tumor model L1210 Leukemia (intraperitoneal) in B6D2F1 (BDF1) mice. Particulars: endpoint: mean survival time, higher = longer survival. A digest of the protocol: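 Ratio derived from survival: compound-dosed mice over vehicle-dosed mice, all bearing a transplantable tumor.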

[1] abbreviates: dose: 100.0 mg/kg/injection, schedule: Q01DX009 (ip), vehicle: Klucel (hydroxypropylcellulose) (HPC).
Where [2] appears, read: dose: 200.0 mg/kg/injection, schedule: Q01DX009 (ip), vehicle: Klucel (hydroxypropylcellulose) (HPC).
The mark [3] stands for this setting: dose: 100.0 mg/kg/injection, schedule: Q04DX003 (ip), vehicle: Klucel (hydroxypropylcellulose) (HPC).
The mark [4] stands for this setting: dose: 200.0 mg/kg/injection, schedule: Q04DX003 (ip), vehicle: Klucel (hydroxypropylcellulose) (HPC).
Setting [5] is: dose: 400.0 mg/kg/injection, schedule: Q01DX009 (ip), vehicle: Klucel (hydroxypropylcellulose) (HPC).
[6] abbreviates: dose: 400.0 mg/kg/injection, schedule: Q04DX003 (ip), vehicle: Klucel (hydroxypropylcellulose) (HPC).
The mark [7] stands for this setting: dose: 15.0 mg/kg/injection, schedule: Q01DX Z (ip), vehicle: carboxymethylcellulose (CMC).
Setting [8] is: dose: 30.0 mg/kg/injection, schedule: Q01DX Z (ip), vehicle: carboxymethylcellulose (CMC).
The mark [9] stands for this setting: dose: 60.0 mg/kg/injection, schedule: Q01DX Z (ip), vehicle: carboxymethylcellulose (CMC).
Where [10] appears, read: dose: 100.0 mg/kg/injection, schedule: Q01DX001 (ip), vehicle: carboxymethylcellulose (CMC).
Setting [11] is: dose: 200.0 mg/kg/injection, schedule: Q01DX001 (ip), vehicle: carboxymethylcellulose (CMC).
The mark [12] stands for this setting: dose: 400.0 mg/kg/injection, schedule: Q01DX001 (ip), vehicle: carboxymethylcellulose (CMC).
[13] abbreviates: dose: 100.0 mg/kg/injection, schedule: Q04DX003 (ip), vehicle: saline with Tween-80.
The mark [14] stands for this setting: dose: 200.0 mg/kg/injection, schedule: Q04DX003 (ip), vehicle: saline with Tween-80.
Where [15] appears, read: dose: 400.0 mg/kg/injection, schedule: Q04DX003 (ip), vehicle: saline with Tween-80.
Setting [16] is: dose: 100.0 mg/kg/injection, schedule: Q04DX002 (ip), vehicle: Klucel (hydroxypropylcellulose) (HPC).
[17] abbreviates: dose: 200.0 mg/kg/injection, schedule: Q04DX002 (ip), vehicle: Klucel (hydroxypropylcellulose) (HPC).
Setting [18] is: dose: 400.0 mg/kg/injection, schedule: Q04DX002 (ip), vehicle: Klucel (hydroxypropylcellulose) (HPC).

Toxic doses and inconclusive results are not listed.

From PubChem BioAssay AID248 (DTP/NCI, 2004) come the findings set out here.

Regarding `CC(=O)NCCCCCCCCCCNC(C)=O`, the T/C (dose: 10.0 mg/kg/injection, schedule: Q01DX Z (ip), vehicle: saline) was 91 % of control; the T/C (dose: 30.0 mg/kg/injection, schedule: Q01DX Z (ip), vehicle: saline) was 95 % of control; the T/C (dose: 100.0 mg/kg/injection, schedule: Q01DX Z (ip), vehicle: saline) was 95 % of control; the T/C (dose: 300.0 mg/kg/injection, schedule: Q01DX Z (ip), vehicle: saline) is 98 % of control.
Turning to `Cc1c2cnccc2c(C)c2c1sc1ccccc12`, the T/C by setting is: (dose: 75.0 mg/kg/injection, schedule: Q01DX001 (ip), vehicle: other) 101 % of control; (dose: 150.0 mg/kg/injection, schedule: Q01DX001 (ip), vehicle: other) 106 % of control; (dose: 300.0 mg/kg/injection, schedule: Q01DX001 (ip), vehicle: other) 124 % of control.
For `C=CCC(C#N)(CCN(C)C)c1cccc2ccccc12` (stereo unspecified), the T/C by setting is: under setting [1], 99 % of control; under setting [2], 111 % of control.
Consider `CC(C)(C)C(=O)CC(=O)C(C)(C)C.CC(C)(C)C(=O)CC(=O)C(C)(C)C.CC(C)(C)C(=O)CC(=O)C(C)(C)C.CC(C)(C)C(=O)CC(=O)C(C)(C)C.[Ce]`, for which the T/C under setting [1] was 100 % of control; the T/C under setting [3] was 103 % of control; the T/C under setting [2] was 96 % of control; the T/C under setting [4] is 94 % of control; the T/C under setting [5] was 107 % of control; the T/C under setting [6] is 106 % of control.
Take `O=C(Nc1cccnc1)c1ccc([N+](=O)[O-])s1`: the T/C is 102 % of control (dose: 50.0 mg/kg/injection, schedule: Q01DX005 (ip), vehicle: saline); 117 % of control (dose: 100.0 mg/kg/injection, schedule: Q01DX005 (ip), vehicle: saline); 173 % of control (dose: 400.0 mg/kg/injection, schedule: Q01DX005 (ip), vehicle: saline).
As for `NC(=Nc1ccccc1)c1ccc(C(N)=Nc2ccccc2)cc1`, the T/C by setting is: under setting [7], 104 % of control; under setting [8], 98 % of control; under setting [9], 86 % of control.
Turning to `CC(C)CC(CC(C)C)=NO`, the T/C under setting [10] is 104 % of control, the T/C under setting [11] is 101 % of control and the T/C under setting [12] is 103 % of control.
As for `COc1ccc(/C(Cc2ccccc2)=N\N=C(N)N)cc1`, the T/C reads like this: under setting [7], 97 % of control; under setting [8], 97 % of control; under setting [9], 97 % of control; (dose: 120.0 mg/kg/injection, schedule: Q01DX Z (ip), vehicle: carboxymethylcellulose (CMC)) 101 % of control; (dose: 240.0 mg/kg/injection, schedule: Q01DX Z (oral), vehicle: carboxymethylcellulose (CMC)) 108 % of control; (dose: 480.0 mg/kg/injection, schedule: Q01DX Z (oral), vehicle: carboxymethylcellulose (CMC)) 104 % of control. For the same compound, the T/C (dose: 960.0 mg/kg/injection, schedule: Q01DX Z (oral), vehicle: carboxymethylcellulose (CMC)) is 88 % of control.
As for `OCC1OC(c2ccccc2)OC2C(CO)OC(c3ccccc3)OC12` (stereo unspecified), the T/C under setting [13] was 93 % of control, the T/C under setting [14] was 96 % of control and the T/C under setting [15] is 89 % of control.
As for `c1ccc(N/N=C(\Sc2ccccc2)c2ccccc2)cc1`, the T/C under setting [13] is 113 % of control, the T/C under setting [14] was 102 % of control and the T/C under setting [15] was 94 % of control.
With `CC12CCC(c3cn(C(=O)c4cccnc4)nc31)C2(C)C` (stereo unspecified), the T/C runs as follows: under setting [3], 92 % of control; under setting [4], 97 % of control; under setting [6], 95 % of control.
As for `O=NN(CCCl)C(=O)Nc1ccc(SCC(=O)O)cc1`, the T/C (dose: 5.0 mg/kg/injection, schedule: Q01DX001 (ip), vehicle: carboxymethylcellulose (CMC)) is 117 % of control; the T/C (dose: 18.0 mg/kg/injection, schedule: Q01DX001 (ip), vehicle: carboxymethylcellulose (CMC)) was 161 % of control; the T/C (dose: 26.0 mg/kg/injection, schedule: Q01DX001 (ip), vehicle: carboxymethylcellulose (CMC)) was 175 % of control.
For `CCC1(CCCCCBr)OCCO1`, the T/C runs as follows: under setting [16], 101 % of control; under setting [17], 108 % of control; under setting [18], 104 % of control.
As for `O=C1C(O)=C(Cl)C(=O)C(OC2=C(Cl)C(=O)C(OC3=C(Cl)C(=O)C(OC4=C(Cl)C(=O)C(Cl)=C(Cl)C4=O)=C(Cl)C3=O)=C(Cl)C2=O)=C1Cl`, the T/C is 97 % of control (dose: 100.0 mg/kg/injection, schedule: Q04DX003 (ip), vehicle: saline) and 105 % of control (dose: 200.0 mg/kg/injection, schedule: Q04DX003 (ip), vehicle: saline).
In the case of `CCC(C)(C)c1ccc(O)c(C(C)(C)CC)c1`, the T/C is 96 % of control under setting [1]; 100 % of control under setting [3]; 96 % of control under setting [2]; 89 % of control under setting [4]; 96 % of control under setting [5]; 87 % of control under setting [6].
With `COC1CC(N=[N+]=[N-])C(OS(C)(=O)=O)C(C)O1` (stereo unspecified), the T/C is 98 % of control under setting [10]; 109 % of control (dose: 100.0 mg/kg/injection, schedule: Q01DX009 (ip), vehicle: saline with Tween-80); 107 % of control under setting [13]; 106 % of control under setting [11]; 94 % of control (dose: 200.0 mg/kg/injection, schedule: Q01DX009 (ip), vehicle: saline with Tween-80); 107 % of control under setting [14]. Moreover, the T/C is 98 % of control under setting [12]; 109 % of control (dose: 400.0 mg/kg/injection, schedule: Q01DX009 (ip), vehicle: saline with Tween-80); 108 % of control under setting [15].
For `CCCCNC(=O)C(=O)NCCCC`, the T/C runs as follows: (dose: 100.0 mg/kg/injection, schedule: Q01DX001 (ip), vehicle: Klucel (hydroxypropylcellulose) (HPC)) 108 % of control; (dose: 100.0 mg/kg/injection, schedule: Q01DX009 (ip), vehicle: other) 90 % of control; under setting [16], 96 % of control; (dose: 200.0 mg/kg/injection, schedule: Q01DX001 (ip), vehicle: Klucel (hydroxypropylcellulose) (HPC)) 103 % of control; (dose: 200.0 mg/kg/injection, schedule: Q01DX009 (ip), vehicle: other) 94 % of control; under setting [17], 96 % of control. Further, the T/C is, setting by setting: (dose: 400.0 mg/kg/injection, schedule: Q01DX001 (ip), vehicle: Klucel (hydroxypropylcellulose) (HPC)) 97 % of control; (dose: 400.0 mg/kg/injection, schedule: Q01DX009 (ip), vehicle: other) 95 % of control; under setting [18], 103 % of control.
Turning to `O=C(O)c1c(Cl)c(Cl)c(Cl)c(Cl)c1C(=O)Nc1cccc(C(F)(F)F)c1`, the T/C was 100 % of control under setting [1]; 94 % of control under setting [3]; 97 % of control under setting [2]; 100 % of control under setting [4]; 105 % of control under setting [6].
On to `O=[N+]([O-])c1ccc(O)c(/C=N/Nc2c3ccccc3nc3ccccc23)c1`, for which the T/C was 103 % of control (dose: 100.0 mg/kg/injection, schedule: Q01DX001 (ip), vehicle: saline); 95 % of control (dose: 200.0 mg/kg/injection, schedule: Q01DX001 (ip), vehicle: saline); 92 % of control (dose: 400.0 mg/kg/injection, schedule: Q01DX001 (ip), vehicle: saline).
As to `O=C1OCCN1/N=C/c1ccc(Cl)cc1`, the T/C reads like this: (dose: 25.0 mg/kg/injection, schedule: Q01DX009 (ip), vehicle: saline with Tween-80) 102 % of control; (dose: 37.5 mg/kg/injection, schedule: Q01DX009 (ip), vehicle: saline with Tween-80) 98 % of control; (dose: 50.0 mg/kg/injection, schedule: Q01DX009 (ip), vehicle: saline with Tween-80) 102 % of control; (dose: 75.0 mg/kg/injection, schedule: Q01DX009 (ip), vehicle: saline with Tween-80) 93 % of control; (dose: 100.0 mg/kg/injection, schedule: Q04DX002 (ip), vehicle: saline with Tween-80) 96 % of control; (dose: 200.0 mg/kg/injection, schedule: Q04DX002 (ip), vehicle: saline with Tween-80) 107 % of control.
